Values of other authors, collected in patent US20110250260A1, “INHIBITION OF BRAIN ENZYMES INOLVED IN CEREBRAL AMYLOID ANGIOPATHY AND MACULAR DEGENERATION” (Loma Linda University Medical Center, priority 2006, published 2011).
Where a SMILES comes first, the peptide text is derived from it. The star is where a group is joined. Cbz = O=C(OCc1ccccc1)*; CH2F = FC*

Assays:
[1] = system: liver function during hepatitis C virus infection; conditions: human trials
[2] = system: cell death after ischemia in multiple tissues; conditions: animal models
Heme oxidase = conditions: experimental brain hematomas
[3] = system: heart failure in a murine model

C[C@H](NC(=O)C(=O)Nc1ccccc1C(C)(C)C)C(=O)N[C@@H](CC(=O)O)C(=O)COc1c(F)c(F)cc(F)c1F [IDN-6556]
preserving liver function [1]: showing promise | side-effects [1]: without exhibiting serious side-effects

COC(=O)C[C@H](NC(=O)[C@H](C)NC(=O)[C@@H](NC(=O)OCc1ccccc1)C(C)C)C(=O)CF [zVAD-FMK] (Cbz-Val-Ala-Asp(OMe)-CH2F)
reducing cell death after ischemia [2]: highly effective

tin-mesoporphyrin
effects to the brain of heme oxidase inhibition (Heme oxidase): beneficial effects to the brain

Cc1c(C(=O)N[C@H](C(=O)NC(CC(=O)O)C(=O)CF)C(C)C)n(C)c2ccccc12 (stereo partly shown) [IDN-1965]
mortality ([3]; compared with vehicle-treated mice): eliminate the 30% mortality | reduction of caspase 3-like activity ([3]; continuous infusion): 90% | reduction of terminal dUTP nick end-labeling-positive myocytes ([3]; continuous infusion): 90%
